Assay results: US8519139B2, “Indazolamides with analgesic activity” (Aziende Chimeche Riunite Angelini Francesco A.C.R.A.F. …, priority 2003, dated 2013)

Tests used:
[1] = tested on: CFA-induced mechanical hyperalgesia in rats; test: CFA-induced mechanical hyperalgesia in rats; assay type: in vivo, rat; settings: male CD rats, dose 10^-5 mol/kg, test 23 hours after injecting the CFA, 1 h after treatment; vehicle 120 ± 6.1, normal animals 155±2.1 g
Description: 1. CFA-induced Mechanical Hyperalgesia in Rats
Male CD rats weighing 150-200 g on arrival were used.
By means of an analgesimeter, rats with a response threshold to a mechanical nociceptive stimulus in the range from 150 to 180 g were selected. By applying a gradual increase in pressure onto the dorsal region of the left hind paw of the rat, the instrument makes it possible to record the nocifensive response, expressed in grams, corresponding to the moment at which the animal retracts the paw [Randall L O and Selitto J J. A method for the measurement of analgesic activity on inflamed tissue. Arch. Int. Pharmacodyn. Ther. 1957; 111: 409-419].
The hyperalgesia was induced by unilateral injection of 150 μl of “Complete Freund's Adjuvant” (CFA) into the surface of the left hind paw of the animal [Andrew D, Greenspan J D. Mechanical and heat sensitization of cutaneous nociceptors after peripheral inflammation in the rat. J Neurophysiol. 1999; 82(5): 2649-2656; Hargreaves K, Dubner R, Brown R, Flores C, Joris J. A new and sensitive method for measuring thermal nociception in cutaneous hyperalgesia. Pain 1988; 32: 77-88].
The test compounds were tested (dose: 10^−5 mol/kg) by performing the test 23 hours after injecting the CFA.
One hour after the treatment, the pain threshold measured in control animals was compared with that measured in animals treated with the test product. The control animals were treated with the same vehicle (water) used for administering the test products.

[2] = tested on: Mechanical hyperalgesia in rats with streptozotocin-induced diabetes (diabetic neuropathy); test: Mechanical hyperalgesia in rats with streptozotocin-induced diabetes; assay type: in vivo, rat; settings: male CD rats, dose 10^-5 mol/kg, 2 h after treatment, vehicle 114 ± 2.7, normal animals 240±8.7 g
Experimental: 2. Mechanical Hyperalgesia in Rats with Streptozotocin-induced Diabetes
Male CD rats weighing 240-300 g on arrival were used.
The diabetic syndrome was induced by means of a single intraperitoneal (i.p.) injection of 80 mg/kg of streptozotocin dissolved in sterile physiological solution [Courteix C, Eschalier A, Lavarenne J. Streptozotocin-induced diabetic rats: behavioural evidence for a model of chronic pain. Pain, 1993; 53: 81-88; Bannon A W, Decker M W, Kim D J, Campbell J E, Arneric S P. ABT-594, a novel cholinergic channel modulator, is efficacious in nerve ligation and diabetic neuropathy models of neuropathic pain. Brain Res. 1998; 801:158-63].
At least three weeks after the injection of streptozotocin, rats with a level of glycemia≧300 mg/dl and with a response threshold to a mechanical nociceptive stimulus ≦120 g were selected. The glycemia levels were measured by means of a reflectometer, using reactive strips impregnated with glucose oxidase. The pain threshold was measured using an analgesimeter. By applying a gradual increase in pressure onto the dorsal area of the left hind paw of the rat, the instrument makes it possible to record the nocifensive response, expressed in grams, corresponding to the moment at which the animal retracts the paw.
Two hours after the treatment, the pain threshold measured in control animals was compared with that measured in animals treated with the test product (dose: 10^−5 mol/kg).
The control animals were treated with the same vehicle (water) used for administering the test products.

Structure (SMILES) | Pain threshold (g) 1 h after the treatment [1] [g] | Pain threshold (g) 2 h after the treatment [2] [g]
CC(C)n1nc(C(=O)NCC2CCN(CC(=O)Nc3ccccc3)CC2)c2ccccc21.Cl [AF3R172, N3-((1-(2-oxo-2-(phenylamino)ethyl)-4-piperidyl)methyl)-1-(1-methylethyl)-1H-indazole-3-carboxamide hydrochloride] | 175 ± 10.2 | 186 ± 13.0
Cc1ccc(S(=O)(=O)O)cc1.O=C(CN1CCC(CNC(=O)c2n[nH]c3ccccc23)CC1)Nc1ccccc1 [AF3R276, N3-((1-(2-oxo-2-(phenylamino)ethyl)-4-piperidyl)methyl)-1H-indazole-3-carboxamide tosylate] | 185 ± 15.9 | 210 ± 10.9
Cl.O=C(CN1CCC(CNC(=O)c2nn(Cc3ccccc3)c3ccccc23)CC1)Nc1ccccc1 [AF3R277, N3-((1-(2-oxo-2-(phenylamino)ethyl)-4-piperidyl)methyl)-1-benzyl-1H-indazole-3-carboxamide hydrochloride] | 170 ± 10.7 | 188 ± 11.0
CC(C)n1nc(C(=O)NCC2CCN(CC(=O)Nc3ccc(O)cc3)CC2)c2ccccc21.Cl [AF3R278, N3-((1-(2-((4-hydroxyphenyl)amino)-2-oxoethyl)-4-piperidyl)methyl)-1-(1-methylethyl)-1H-indazole-3-arboxamide hydrochloride] | 164 ± 10.2 | 240 ± 16.5
CC(C)n1nc(C(=O)NCC2CCN(CC(=O)Nc3ccc(N)cc3)CC2)c2ccccc21.Cl.Cl [AF3R292, N3-((1-(2-oxo-2-((4-aminophenyl)amino)ethyl)-4-piperidyl)methyl)-1-(1-methylethyl)-1H-indazole-3-carboxamide dihydrochloride] | 154 ± 11.5 | 202 ± 8.7
Cc1ccc2[nH]nc(C(=O)NCC3CCN(CC(=O)Nc4ccccc4)CC3)c2c1.Cl [AF3R295, 5-methyl-N-3-((1-(2-oxo-2-(phenylamino)ethyl)-4-piperidyl)methyl)-1H-indazole-3-carboxamide hydrochloride] | 202 ± 17.0 | 212 ± 14.6
Cc1ccc2c(c1)c(C(=O)NCC1CCN(CC(=O)Nc3ccccc3)CC1)nn2C(C)C.Cl [AF3R299, 5-methyl-N-3-((1-(2-oxo-2-(phenylamino)ethyl)-4-piperidyl)methy 1)-1-(1-methylethyl)-1H-indazole-3-carboxamide hydrochloride] | 167 ± 8.5 | 200 ± 10.7
CC(C)n1nc(C(=O)NCC2CCN(CC(=O)Nc3ccc(N(C)C)cc3)CC2)c2ccccc21.Cl.Cl [AF3R301, N3-((1-(2-oxo-2-((4-(dimethylamino)phenyl)amino)ethyl)-4-piperidyl)methyl)-1-(1-methylethyl)-1H-indazole-3-carboxamide dihydrochloride] | 151 ± 10.7 | 201 ± 13.8
Cc1cccc(C)c1NC(=O)CN1CCC(CNC(=O)c2nn(C(C)C)c3ccccc23)CC1.O=C(O)C(=O)O [AF3R305, N3-((1-(2-oxo-2-((2,6-dimethylphenyl)amino)ethyl)-4-piperidyl)methyl)-1-(1-methylethyl)-1H-indazole-3-carboxamide oxalate] | 174 ± 8.4 | 189 ± 9.2
CC(C)n1nc(C(=O)NCC2CCN(CC(=O)Nc3ccc(OCc4ccccc4)cc3)CC2)c2ccccc21 [AF3R331, N3-((1-(2-oxo-2-((4-((phenylmethyl)oxy)phenyl)amino)ethyl)-4-piperidyl)methyl)-1-(1-methylethyl)-1H-indazole-3-carboxamide] | 156 ± 8.7 | 192 ± 11.5
CC(C)n1nc(C(=O)NCC2CCN(CC(=O)Nc3ccc([N+](=O)[O-])cc3)CC2)c2ccccc21 [AF3R335, N3-((1-(2-oxo-2-((4-nitrophenyl)amino)ethyl)-4-piperidyl)methyl)-1-(1-methylethyl)-1H-indazole-3-carboxamide] | 168 ± 6.8 | 180 ± 13.0
